Earlier results, collected in US20230263874A1, “TUMOR ANTIGENS FOR LIVER CANCER IMMUNOTHERAPY” (ISTITUTO NAZIONALE TUMORI IRCCS - FONDAZIONE G. PASCALE, priority 2020, published 2023).

System: hepatocellular carcinoma
Conditions: second-line treatment, advanced liver cancer not responded to sorafenib; cited from earlier work

In the case of `CNC(=O)c1cc(Oc2ccc(NC(=O)Nc3ccc(Cl)c(C(F)(F)F)c3)c(F)c2)ccn1` [Regorafenib], the “improvement in overall survival” value is listed as 2.8 month and the “reduction risk of death” value is listed as 38%.
